Data as given in US6987088B2, “Compounds that bind HER2” (Genentech, Inc., priority 1999, dated 2006).
“Also recorded” adds a separate entry of the source. Where no end group is shown, it is not given here.

Key:
[1] = target: T1, HER2-ECD (Homo sapiens, UniProt P04626); assay: HER2 competition ELISA (block binding of 1.1.FI-Zb to immobilized HER2-ECD); details: for HER2 binding activity of Superdex 75 fractions (active species): monomer and dimer fractions assayed in HER2 competition ELISA; for IC50: read-out: IC50, block binding of 1.1.FI-Zb to immobilized HER2, HER2 competition ELISA, 40 nM biotinylated 1.1.FI-Z
T1 construct: immobilized extracellular domain of Erb2 (HER2-ECD, Hudziak et al. (1991) J. Biol. Chem. 266:24109-15)
Experimental: By way of exemplification and not limitation an ELISA assay can be conducted wherein microtiter plates (for example, Nunc Maxisorp™ 96-well plates, Inter Med, Denmark) are coated with HER2-ECD in 50 mM ammonium bicarbonate, pH 9.3, using 5 μg/ml, overnight at 4° C. Wells can be blocked using PBS containing 1% BSA (PBS-BSA) for 1 hr at 25° C. […] Following an incubation of about 1 hour the plate is washed with PBS-TWEEN and Strepavidin-HRP is added for about 30 min. Plates are washed again with PBS-TWEEN and the bound HRP assayed using ABTS/H2O2 substrate. The change in absorbance at 405 nm is monitored. Decrease in absorbance is plotted vs. sample concentration and an IC50 for each candidate peptide ligand is determined.
Following a 1 h incubation the plate was washed with PBS-Tween and Strepavidin/HRP conjugate (Streptavidin-POD, Roche Molecular Biochemicals) was added for 30 min. Plates were washed again with PBS-Tween and the bound HRP was assayed using ABTS/H2O2 substrate (Kirkegaard & Perry Laboratories) and the absorbance at 405 nm was monitored. […] Fractions from the HPLC were tested for their ability to compete in the HER2 competition ELISA.

[2] = target: T2, HER2 expressed on cells (Homo sapiens, UniProt P04626); assay: Cell binding by FACS analysis (BT 474, MDA 361, BaF3); format: cell-based; details: BT 474 (3×10^6 receptors/cell), MDA 361 (4×10^5 receptors/cell), BaF3 (no HER2); 0, 0.5 or 5 μM
T2 construct: Cells expressing HER2 (BT 474 [3+], MDA 361 [2+], and BaF3 [0+]); endogenous in cells; host or cells: BT 474, MDA 361 (BaF3 as control line without HER2)

[3] = target: HER4 (Homo sapiens, UniProt Q15303); assay: Phage binding assay, HER4
[4] = target: T1, HER2-ECD; assay: Phage binding assay, immobilized HER2-ECD
Experimental: (§1) • Selection Conditions—HER2-ECD was immobilized directly to maxisorp plates in 50 mM ammonium bicarbonate, pH 9.3, using 5 μg/ml, overnight at 4° C. Wells were blocked using PBS containing 1% BSA (PBS-BSA) for 1 hr at 25° C. Phage from each pool were incubated in wells containing HER2-ECD in PBS-BSA for 3 hr at 25° C.; generally about 5×10^10 phage were added at the beginning of each round. Unbound phage were removed by repetitive washing with PBS containing 0.05% Tween 20 (PBS-Tween); remaining phage were eluted with 500 mM KCl, 10 mM HCl, pH 2. The eluted phage were then amplified in XL1-Blue cells with VCSM13 helper phage (Stratagene) overnight at 37° C. IPTG (10 μM) was added only to the initial phage libraries and during amplification following round 1; later rounds relied on basal expression of the tac promoter for production of peptide-pVIII expression. Enrichment was monitored by titering the number of phage which bound to a target coated well compare to a well coated with BSA. • HER2 Phage Binding Assay—Inhibition of binding of phage displaying a single copy of peptide 1.1FI (Table 1) on their surface to the immobilized extracellular domain of Erb2 (HER2-ECD, Hudziak et al. (1991) J. Biol. Chem. 266:24109-15) was monitored using a phage ELISA. HER2-ECD was immobilized directly to Maxisorp plates (Nunc) in 50 mM ammonium bicarbonate, pH 9.3, using 5 μg/ml, overnight at 4° C. Wells were blocked using PBS containing 1% BSA (PBS-BSA) for 1 h at 25° C. Dilutions of 1.1FI-Fc in PBS-BSA were tested for their ability to block the binding of 1.1FI displaying phage to the immobilized HER2-ECD. The microtiter plate was washed with PBS containing 0.05% Tween20 (PBS-Tween) and the phage bound to HER2-ECD were detected with an anti-gVIII/HRP monoclonal antibody conjugate (Amersham Pharmacia Biotech). The amount of HRP bound Was measured using ABTS/H2O2 substrate and monitoring the change at 405 nm. Results • Selection of Polyvalent Peptide-Phage That Bind to HER2-ECD—Polyvalent peptide libraries were sorted in 7 pools (Table 1) against immobilized HER2-ECD. […]

[5] = target: BSA (Bos taurus, UniProt P02769); assay: Phage binding assay, immobilized BSA
Experimental: as §1

[6] = target: HER3 (Homo sapiens, UniProt P21860); assay: Phage binding assay, HER3
[7] = target: T3, immobilized HER2 (Homo sapiens, UniProt P04626); assay: Binding of Class 1 and Class 7 phage clones to immobilized HER2 in the presence of peptide
T3 construct: immobilized extracellular domain of Erb2 (HER2-ECD, Hudziak et al. (1991) J. Biol. Chem. 266:24109-15)

Chain of HER3 (P21860 20-1342, species assumed): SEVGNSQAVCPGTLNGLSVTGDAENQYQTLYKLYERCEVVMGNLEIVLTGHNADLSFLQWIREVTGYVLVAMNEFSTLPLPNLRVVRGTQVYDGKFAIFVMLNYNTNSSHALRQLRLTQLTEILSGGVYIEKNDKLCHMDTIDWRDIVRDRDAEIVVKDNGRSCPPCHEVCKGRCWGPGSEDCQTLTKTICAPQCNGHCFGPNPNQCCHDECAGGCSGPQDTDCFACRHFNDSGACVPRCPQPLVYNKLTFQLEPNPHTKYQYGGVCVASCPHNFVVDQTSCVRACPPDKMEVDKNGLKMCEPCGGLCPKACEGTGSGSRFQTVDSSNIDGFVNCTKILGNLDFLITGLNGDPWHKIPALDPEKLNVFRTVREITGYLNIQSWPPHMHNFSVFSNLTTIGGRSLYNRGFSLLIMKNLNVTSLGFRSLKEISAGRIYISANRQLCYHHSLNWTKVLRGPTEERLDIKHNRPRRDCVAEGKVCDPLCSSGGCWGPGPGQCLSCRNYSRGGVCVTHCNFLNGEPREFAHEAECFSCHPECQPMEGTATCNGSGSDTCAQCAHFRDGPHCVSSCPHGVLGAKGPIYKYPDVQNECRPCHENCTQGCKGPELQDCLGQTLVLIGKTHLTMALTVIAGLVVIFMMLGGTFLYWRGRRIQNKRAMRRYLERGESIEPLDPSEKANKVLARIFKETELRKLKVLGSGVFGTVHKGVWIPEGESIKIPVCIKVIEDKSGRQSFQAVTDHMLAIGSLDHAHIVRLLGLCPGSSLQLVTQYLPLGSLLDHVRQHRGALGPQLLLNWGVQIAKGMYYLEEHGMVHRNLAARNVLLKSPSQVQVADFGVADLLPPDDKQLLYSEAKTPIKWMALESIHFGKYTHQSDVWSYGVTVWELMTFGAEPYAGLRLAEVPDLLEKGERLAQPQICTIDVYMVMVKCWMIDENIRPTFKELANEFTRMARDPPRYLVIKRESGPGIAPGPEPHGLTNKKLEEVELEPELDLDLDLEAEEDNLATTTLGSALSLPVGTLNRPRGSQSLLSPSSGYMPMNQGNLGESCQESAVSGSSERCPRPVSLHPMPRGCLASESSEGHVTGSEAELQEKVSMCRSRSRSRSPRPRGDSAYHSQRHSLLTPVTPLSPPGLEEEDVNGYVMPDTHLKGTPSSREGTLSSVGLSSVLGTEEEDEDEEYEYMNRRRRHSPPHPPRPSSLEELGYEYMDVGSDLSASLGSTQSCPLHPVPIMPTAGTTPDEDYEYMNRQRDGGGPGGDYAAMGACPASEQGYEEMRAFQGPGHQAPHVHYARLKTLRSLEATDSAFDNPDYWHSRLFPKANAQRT
Chain of HER4 (Q15303 26-1308, species assumed): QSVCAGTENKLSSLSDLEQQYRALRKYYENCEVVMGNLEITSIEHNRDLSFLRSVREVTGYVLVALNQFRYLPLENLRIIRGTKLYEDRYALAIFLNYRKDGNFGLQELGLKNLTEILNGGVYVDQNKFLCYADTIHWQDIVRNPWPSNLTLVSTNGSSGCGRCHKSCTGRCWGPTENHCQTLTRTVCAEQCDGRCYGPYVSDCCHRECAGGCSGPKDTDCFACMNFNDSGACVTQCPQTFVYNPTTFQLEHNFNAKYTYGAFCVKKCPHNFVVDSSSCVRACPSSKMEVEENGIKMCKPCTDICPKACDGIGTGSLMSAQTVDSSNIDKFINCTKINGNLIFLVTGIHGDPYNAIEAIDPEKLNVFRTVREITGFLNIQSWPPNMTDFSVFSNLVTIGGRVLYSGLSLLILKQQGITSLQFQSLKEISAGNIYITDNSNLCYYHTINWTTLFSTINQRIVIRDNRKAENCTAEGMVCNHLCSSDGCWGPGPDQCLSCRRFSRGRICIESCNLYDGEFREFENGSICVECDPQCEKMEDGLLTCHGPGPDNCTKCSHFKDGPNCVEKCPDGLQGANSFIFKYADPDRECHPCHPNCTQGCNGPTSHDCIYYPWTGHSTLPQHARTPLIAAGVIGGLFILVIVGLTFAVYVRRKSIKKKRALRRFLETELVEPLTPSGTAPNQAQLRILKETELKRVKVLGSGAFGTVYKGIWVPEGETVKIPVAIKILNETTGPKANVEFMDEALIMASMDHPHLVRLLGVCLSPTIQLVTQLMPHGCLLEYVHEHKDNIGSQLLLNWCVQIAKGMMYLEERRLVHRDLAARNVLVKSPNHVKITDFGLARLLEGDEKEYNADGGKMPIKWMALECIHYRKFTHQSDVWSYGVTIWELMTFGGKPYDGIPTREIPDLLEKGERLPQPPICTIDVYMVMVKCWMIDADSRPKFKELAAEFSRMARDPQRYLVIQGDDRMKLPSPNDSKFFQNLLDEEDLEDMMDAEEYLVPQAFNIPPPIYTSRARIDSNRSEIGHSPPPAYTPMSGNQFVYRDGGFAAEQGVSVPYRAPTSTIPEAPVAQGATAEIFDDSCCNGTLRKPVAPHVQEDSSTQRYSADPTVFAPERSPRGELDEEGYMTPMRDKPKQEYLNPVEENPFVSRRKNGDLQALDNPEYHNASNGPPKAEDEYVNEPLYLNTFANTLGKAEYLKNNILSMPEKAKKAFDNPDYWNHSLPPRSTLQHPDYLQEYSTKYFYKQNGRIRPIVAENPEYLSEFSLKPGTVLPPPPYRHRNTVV
Chain of BSA (P02769 25-607): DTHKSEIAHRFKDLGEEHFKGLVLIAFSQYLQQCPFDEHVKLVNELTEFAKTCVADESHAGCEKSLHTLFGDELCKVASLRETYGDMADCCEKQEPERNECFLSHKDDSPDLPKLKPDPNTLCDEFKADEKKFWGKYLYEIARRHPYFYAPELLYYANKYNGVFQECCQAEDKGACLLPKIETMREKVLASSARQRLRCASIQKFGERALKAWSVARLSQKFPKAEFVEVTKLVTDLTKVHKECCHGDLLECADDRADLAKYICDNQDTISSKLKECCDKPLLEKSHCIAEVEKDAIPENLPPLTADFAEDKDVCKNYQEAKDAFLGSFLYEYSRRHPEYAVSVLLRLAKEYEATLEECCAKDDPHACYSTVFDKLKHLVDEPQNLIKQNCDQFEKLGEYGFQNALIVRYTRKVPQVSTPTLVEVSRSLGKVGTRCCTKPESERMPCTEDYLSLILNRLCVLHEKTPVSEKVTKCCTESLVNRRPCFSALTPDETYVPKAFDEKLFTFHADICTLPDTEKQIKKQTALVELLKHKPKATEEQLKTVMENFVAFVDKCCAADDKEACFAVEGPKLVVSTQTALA

| Substance | Phage binding to HER4 [3] | Phage binding to immobilized HER2-ECD [4] | Phage binding to immobilized BSA [5] | Phage binding to HER3 [6] | further results |
| --- | --- | --- | --- | --- | --- |
| 1.1.FI-Z: peptide 1.1.FI expressed and secreted from E. coli as a fusion to the Z domain of protein A (QVYESWGCIGPGCACLQACL) |  |  |  |  | HER2 binding activity of Superdex 75 fractions (active species) [1]: coincided with the dimer fractions rather than the monomer fractions; also recorded: coinciding with dimer fractions; IC50 [1]: 50 nM |
| 1.1.FI-Zb: biotinylated 1.1.FI-Z preparation (QVYESWGCIGPGCACLQACL; cysteine pairing not given here; also: biotinylated (NHS-LC-biotin), fused to Z domain (not in chain)) |  |  |  |  | Binding to cells by FACS [2]: bind cells proportional to the number of HER2 receptors expressed on the cell |
| (FI)2-Z: 1.1.FI sequence repeated twice and fused to the Z domain of protein A, single chain dimer (QVYESWGCIGPGCACLQACLGGGSGGQVYESWGCIGPGCACLQACL; cysteine pairing not given here; also: fused to the Z domain of protein A (end not given here)) |  |  |  |  | HER2 binding activity of Superdex 75 fractions (active species) [1]: the active species was now identified as monomer; HER2 binding activity of Superdex 75 fractions (active species) ([1]; listed as (1.1FI)2-Z): coinciding with monomer fractions |
| CSWVLVQCGGEWWHCCGLGCGLVVNAC (cysteine pairing not given here) [7.1] | not | bind | not | not |  |
| R S C A D V A S R C W E H C I T [5.1] | not | bind | not | not |  |
| YEVEAWDCMGPGCANLFEAH [1.1] | not | bind | not | not |  |
| YSFEGWGCIGPGCAYLFEGH (cysteine pairing not given here) [HER201] |  |  |  |  | Blocking of binding of Class 1 and Class 7 phage to immobilized HER2 [7]: block the binding of both Class 1 and Class 7 phage |
| active fraction: HPLC fraction of trypsin-digested 1.1.FI-Z; mass corresponding to HER212 sequence, found to contain dimer (QVYESWGCIGPGCACLQACL; cysteine pairing not given here; also: fraction found to contain dimer) |  |  |  |  | IC50 [1]: 3 nM |
